Test results taken from ChEMBL document CHEMBL1201862, “PubChem BioAssay data set” (2004).
The source made the active and inactive calls.

What was measured:
Galanin receptor type 3 = target: T1, Galanin receptor type 3 (Homo sapiens, UniProt O60755); experiment: Fluorescence-based cell-based primary high throughput dose response assay to identify antagonists of the Galanin Receptor 3 (GalR3).; format: functional
T1 sequence (O60755 whole entry): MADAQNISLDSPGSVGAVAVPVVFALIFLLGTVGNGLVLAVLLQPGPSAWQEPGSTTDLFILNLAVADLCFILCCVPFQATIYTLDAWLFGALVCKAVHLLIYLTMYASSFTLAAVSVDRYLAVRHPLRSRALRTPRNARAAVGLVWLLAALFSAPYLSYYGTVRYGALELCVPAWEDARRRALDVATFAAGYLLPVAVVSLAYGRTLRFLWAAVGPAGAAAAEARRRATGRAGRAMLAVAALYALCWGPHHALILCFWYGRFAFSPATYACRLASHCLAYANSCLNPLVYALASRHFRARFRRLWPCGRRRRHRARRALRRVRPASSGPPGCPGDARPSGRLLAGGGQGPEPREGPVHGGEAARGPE

H9c2 = experiment: cells; format: functional, cell-based; settings: Rattus norvegicus, H9c2, Myocardium;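 also: confirmatory concentration-response retest of ultra-high-throughput screening hits for modulation of myocardial damage; cell death induced by hydrogen peroxide oxidative stress; compound pretreatment for 60 min then peroxide exposure for 2 h; potency is for protecting the cells against peroxide damage rather than for killing them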
cells = format: functional, cell-based; settings: HEK-CNG
[1] = blockers of HIV-1 envelope-mediated cell-cell fusion – cherry-pick, dose response (AID 652057); format: functional, cell-based
[2] = off-target signal loss in HeLa-CEM21 co-culture – HeLa F-luc CTL cells, cherry-picked, counter-screen for HIV-1 Env fusion inhibitor project, dose response (AID 652040); format: functional, cell-based;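 also: potency for signal decrease marking cytotoxic or nonspecific inhibition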
[3] = blockers of HIV-1 ZM109 envelope-driven cell-cell fusion – HeLa effector, CEM target cells, luciferase, cherry-pick, dose response (AID 652058); format: functional, cell-based;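 also: luciferase signal from HIV-1 Env mediated cell-cell fusion of effector and target cells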
[4] = HIV-1 AD8 envelope cell-cell fusion blockers – cherry-pick, dose response (AID 652062); format: functional, cell-based;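 also: luciferase signal from cell-cell fusion driven by HIV-1 clade B AD8 Env; potency is for inhibitors of fusion seen as a drop in luminescence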
Genome polyprotein = Genome polyprotein (dengue virus type 2, UniProt P29990); experiment: flavivirus cap methylation enzyme inhibition – biochemical, confirmation dose response, primary screen (AID 588689); format: functional
Cytochrome P450 1A2 = target: T2, Cytochrome P450 1A2 (Homo sapiens, UniProt P05177);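 also: PubChem cytochrome P450 panel assay, CYP1A2 panel member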
T2 sequence (P05177 whole entry): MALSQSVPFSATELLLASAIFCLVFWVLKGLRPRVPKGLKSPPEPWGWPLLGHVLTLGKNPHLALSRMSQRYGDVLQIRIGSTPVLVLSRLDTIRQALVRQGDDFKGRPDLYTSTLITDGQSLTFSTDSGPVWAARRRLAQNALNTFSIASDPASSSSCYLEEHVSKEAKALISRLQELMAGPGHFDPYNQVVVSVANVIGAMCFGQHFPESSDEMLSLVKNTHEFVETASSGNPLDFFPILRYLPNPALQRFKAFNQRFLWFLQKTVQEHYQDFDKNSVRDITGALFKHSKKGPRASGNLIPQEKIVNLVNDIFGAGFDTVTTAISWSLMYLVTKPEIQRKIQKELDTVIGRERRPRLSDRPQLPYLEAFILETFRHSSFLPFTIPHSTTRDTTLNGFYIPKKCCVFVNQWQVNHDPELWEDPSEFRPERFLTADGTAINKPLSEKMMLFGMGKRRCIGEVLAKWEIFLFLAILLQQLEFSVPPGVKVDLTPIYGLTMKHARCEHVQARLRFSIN

[5] = target: Induced myeloid leukemia cell differentiation protein Mcl-1 (Homo sapiens, UniProt Q07820); format: functional
Cytochrome P450 2D6 = Cytochrome P450 2D6 (Homo sapiens, UniProt P10635);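 also: CYP2D6 member of a cytochrome P450 panel assay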
[6] = target: DNA (cytosine-5)-methyltransferase 1 (Homo sapiens, UniProt P26358); experiment: inhibition of DNA methylation by DNMT1 – biochemical, fluorescent molecular beacon, confirmation (AID 602386); format: functional
[7] = target: T3, Carboxy-terminal domain RNA polymerase II polypeptide A small phosphatase 1 (Homo sapiens, UniProt Q9GZU7); experiment: CTDSP1 inhibitors, concentration-response, biochemical, absorbance readout, ultra-high-throughput screen actives (AID 540297); format: functional
T3 sequence (Q9GZU7 whole entry): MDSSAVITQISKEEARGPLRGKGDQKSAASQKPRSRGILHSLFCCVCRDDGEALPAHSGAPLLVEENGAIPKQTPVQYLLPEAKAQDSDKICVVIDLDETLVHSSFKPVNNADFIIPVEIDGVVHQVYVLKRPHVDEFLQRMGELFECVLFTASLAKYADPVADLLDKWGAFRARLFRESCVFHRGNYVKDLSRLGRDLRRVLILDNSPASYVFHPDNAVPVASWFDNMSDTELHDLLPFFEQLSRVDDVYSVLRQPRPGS
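For EC50 in this document: target is galanin receptor GalR3 read with a cAMP biosensor in HEK293 cells.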

Sequence of Genome polyprotein (P29990 2492-3391 limits assumed): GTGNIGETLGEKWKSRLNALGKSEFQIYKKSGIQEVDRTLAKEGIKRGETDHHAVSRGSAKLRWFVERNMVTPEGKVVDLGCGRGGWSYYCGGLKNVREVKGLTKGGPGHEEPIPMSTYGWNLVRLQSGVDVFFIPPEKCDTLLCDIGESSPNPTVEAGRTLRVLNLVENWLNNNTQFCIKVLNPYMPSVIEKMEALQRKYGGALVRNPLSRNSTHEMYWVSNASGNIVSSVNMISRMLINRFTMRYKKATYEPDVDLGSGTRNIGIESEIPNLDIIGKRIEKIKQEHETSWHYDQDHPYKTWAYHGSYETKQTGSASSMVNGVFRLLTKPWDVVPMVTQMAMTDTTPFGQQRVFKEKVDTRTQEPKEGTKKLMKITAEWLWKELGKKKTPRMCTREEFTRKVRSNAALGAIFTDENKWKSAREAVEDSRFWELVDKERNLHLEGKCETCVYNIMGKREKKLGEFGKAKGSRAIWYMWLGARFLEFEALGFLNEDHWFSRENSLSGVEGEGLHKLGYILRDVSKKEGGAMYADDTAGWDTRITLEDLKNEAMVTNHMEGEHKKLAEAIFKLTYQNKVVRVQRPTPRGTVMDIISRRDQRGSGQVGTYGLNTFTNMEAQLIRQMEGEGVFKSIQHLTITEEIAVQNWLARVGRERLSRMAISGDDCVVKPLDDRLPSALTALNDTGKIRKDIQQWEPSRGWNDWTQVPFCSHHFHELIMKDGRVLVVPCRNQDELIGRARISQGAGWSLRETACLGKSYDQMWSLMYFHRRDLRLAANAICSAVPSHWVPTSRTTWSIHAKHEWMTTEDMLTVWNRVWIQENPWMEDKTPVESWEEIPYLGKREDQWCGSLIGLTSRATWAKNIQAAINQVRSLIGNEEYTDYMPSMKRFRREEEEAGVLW
Sequence of DNA (cytosine-5)-methyltransferase 1 (P26358 whole entry, the tested form may be a part): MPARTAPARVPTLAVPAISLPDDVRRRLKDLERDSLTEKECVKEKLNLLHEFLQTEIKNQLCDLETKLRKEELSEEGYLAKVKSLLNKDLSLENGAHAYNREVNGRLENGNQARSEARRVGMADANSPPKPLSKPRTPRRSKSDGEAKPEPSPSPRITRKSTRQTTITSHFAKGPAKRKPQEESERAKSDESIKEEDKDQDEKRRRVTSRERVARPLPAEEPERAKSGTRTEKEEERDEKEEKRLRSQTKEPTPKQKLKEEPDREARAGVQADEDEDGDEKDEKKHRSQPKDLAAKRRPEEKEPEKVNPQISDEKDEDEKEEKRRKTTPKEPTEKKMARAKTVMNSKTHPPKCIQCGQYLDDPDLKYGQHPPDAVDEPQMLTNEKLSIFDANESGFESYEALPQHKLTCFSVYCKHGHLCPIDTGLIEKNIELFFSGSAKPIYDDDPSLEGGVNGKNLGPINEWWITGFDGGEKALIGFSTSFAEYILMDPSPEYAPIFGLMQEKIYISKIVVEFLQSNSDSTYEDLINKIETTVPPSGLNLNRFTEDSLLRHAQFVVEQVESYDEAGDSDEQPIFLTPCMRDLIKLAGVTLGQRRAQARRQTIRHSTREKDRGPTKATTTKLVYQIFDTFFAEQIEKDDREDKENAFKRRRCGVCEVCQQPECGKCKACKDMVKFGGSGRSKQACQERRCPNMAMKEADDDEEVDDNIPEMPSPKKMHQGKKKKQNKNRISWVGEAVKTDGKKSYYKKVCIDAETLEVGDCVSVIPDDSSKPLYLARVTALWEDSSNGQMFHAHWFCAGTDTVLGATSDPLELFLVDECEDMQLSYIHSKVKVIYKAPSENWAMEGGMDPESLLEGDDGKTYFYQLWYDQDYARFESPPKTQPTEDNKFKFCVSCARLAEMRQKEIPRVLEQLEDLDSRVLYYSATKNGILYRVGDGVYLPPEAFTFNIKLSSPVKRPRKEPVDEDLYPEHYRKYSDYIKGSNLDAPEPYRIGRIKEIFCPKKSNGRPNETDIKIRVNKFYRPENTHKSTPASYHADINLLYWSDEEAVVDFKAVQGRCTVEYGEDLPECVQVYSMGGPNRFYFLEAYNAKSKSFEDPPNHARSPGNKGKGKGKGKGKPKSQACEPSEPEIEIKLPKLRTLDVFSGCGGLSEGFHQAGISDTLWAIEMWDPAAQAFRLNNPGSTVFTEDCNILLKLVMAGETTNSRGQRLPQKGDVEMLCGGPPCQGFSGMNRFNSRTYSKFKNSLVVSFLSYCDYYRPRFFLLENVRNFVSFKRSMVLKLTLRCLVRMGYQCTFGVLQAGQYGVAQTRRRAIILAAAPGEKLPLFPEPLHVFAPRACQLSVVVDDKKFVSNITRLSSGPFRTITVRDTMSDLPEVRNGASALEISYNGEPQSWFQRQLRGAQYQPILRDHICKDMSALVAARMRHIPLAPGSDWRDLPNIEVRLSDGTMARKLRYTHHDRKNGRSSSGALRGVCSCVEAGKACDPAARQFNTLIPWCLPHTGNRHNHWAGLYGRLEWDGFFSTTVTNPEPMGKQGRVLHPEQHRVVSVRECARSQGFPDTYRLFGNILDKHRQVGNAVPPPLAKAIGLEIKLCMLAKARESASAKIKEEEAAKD
Sequence of Cytochrome P450 2D6 (P10635 whole entry): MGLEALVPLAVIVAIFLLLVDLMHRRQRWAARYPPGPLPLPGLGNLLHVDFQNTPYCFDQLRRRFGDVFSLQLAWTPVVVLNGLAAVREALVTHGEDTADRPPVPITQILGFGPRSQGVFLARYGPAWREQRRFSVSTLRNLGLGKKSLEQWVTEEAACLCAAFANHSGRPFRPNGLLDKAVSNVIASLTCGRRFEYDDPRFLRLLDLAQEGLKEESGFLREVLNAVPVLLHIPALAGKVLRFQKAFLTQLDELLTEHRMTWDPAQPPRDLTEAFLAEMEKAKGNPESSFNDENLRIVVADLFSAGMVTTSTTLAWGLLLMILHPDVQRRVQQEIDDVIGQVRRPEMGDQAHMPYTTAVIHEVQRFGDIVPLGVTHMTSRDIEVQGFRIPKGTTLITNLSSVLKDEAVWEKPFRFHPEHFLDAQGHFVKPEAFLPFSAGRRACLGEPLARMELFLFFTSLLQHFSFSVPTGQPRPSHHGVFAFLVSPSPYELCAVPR
Sequence of Induced myeloid leukemia cell differentiation protein Mcl-1 (Q07820 whole entry): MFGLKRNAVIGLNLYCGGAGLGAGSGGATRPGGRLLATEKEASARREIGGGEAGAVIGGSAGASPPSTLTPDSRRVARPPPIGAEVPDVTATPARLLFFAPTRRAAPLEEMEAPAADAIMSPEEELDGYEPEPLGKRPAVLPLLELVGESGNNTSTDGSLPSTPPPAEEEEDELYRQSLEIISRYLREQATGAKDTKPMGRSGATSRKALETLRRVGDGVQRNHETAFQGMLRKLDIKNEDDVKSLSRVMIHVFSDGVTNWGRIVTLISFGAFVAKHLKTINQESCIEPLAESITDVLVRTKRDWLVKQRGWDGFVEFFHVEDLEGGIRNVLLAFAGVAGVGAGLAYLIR

SMILES	AC50 [1]	AC50 [2]	AC50 [3]	AC50 [4]	IC50 (Genome polyprotein)	other results
COc1cccc(Cn2nc(C(=O)O)c3ccccc3c2=O)c1						IC50 (Galanin receptor type 3): > 29.9 µM (inactive); IC50 (H9c2): > 79 µM (inactive); EC50 (cells): > 29.9 µM (inactive)
CC(C)CCN(N=O)[C@@H](Cc1ccccc1)CN(N=O)[C@@H](Cc1ccccc1)CN(C)N=O	5.26 µM (active)	34.7 µM (active)	6.6 µM (active)	5.64 µM (active)		
COCCN(C(=O)COC(=O)C12CC3CC(CC(Cl)(C3)C1)C2)c1c(N)n(Cc2ccccc2)c(=O)[nH]c1=O	4.61 µM (active)	10.7 µM (active)	10.2 µM (active)	1.44 µM (active)		
O=C(CCN1C(=O)S/C(=C\c2ccccc2)C1=O)Nc1ccc(S(=O)(=O)Nc2nccs2)cc1					> 100 µM (active)	AC50 (Cytochrome P450 1A2): 31.6 µM (inconclusive); IC50 [5]: 7.24 µM (active); AC50 (Cytochrome P450 2D6): 6.31 µM (inconclusive)
CC1(C)CC(=O)C(=Cc2cn(CCC#N)nc2-c2ccc(F)cc2)C(=O)C1					52.8 µM (active)	
O=CC(O)C1OC(=O)C(O)C1O (stereo not drawn)						IC50 [6]: 14.4 µM (active); IC50 [7]: 4.05 µM (active)
